Columns and labels:
[1] = tested on: SH-SY5Y human neuroblastoma cells; experiment: Confocal microscopy of uptake and intracellular localization; assay type: cell-based; details: for intracellular HF488 fluorescence (uptake) after 30 min: 500 nM monomeric peptide in medium, colocalized with endocytosis marker FM 4–64; for intracellular HF488 fluorescence (uptake) after 30 min / intracellular localization after 24 hr: confocal fluorescence; for intracellular localization after 24 hr: 500 nM peptide 24 hr, then 1 hr with 100 nM LysoTracker red; for uptake at 4°C: 1 hr at 4°C (inhibits endocytosis) compared with 37°C, cells washed before confocal imaging
Protocol: Aβ peptides have been reported to be internalized into a variety of cell types, including neurons ([Burdick et al., 1997; Friedrich et al., 2010; Hu et al., 2009; Kaminski Schierle et al., 2011b; McGuire et al., 2012]). To characterize the uptake and intracellular localization of the peptides under the conditions used in our study, we added aliquots of monomeric ^HF488Aβ(1–40) or ^HF488Aβ(1–42) to cultures of SH-SY5Y human neuroblastoma cells to give a total peptide concentration of 500 nM in the cellular medium. […] The neuronal cells were also incubated for 1 hr at 37°C and at 4°C to compare uptake under conditions that, respectively, permit or inhibit endocytosis.
Human neuroblastoma cells (SH-SY5Y) were grown in 1:1 minimal essential medium (MEM) and nutrient mixture F-12 Ham (Sigma-Aldrich) with sodium bicarbonate, including 15% heat-inactivated fetal bovine serum, 1% MEM non-essential amino acids, 2 mM […], 1% penicillin-streptomycin (10,000 U/ml K1), and 0.1% fungizone (amphotericin B, […] K1) (Life Technologies). Cells were plated 1 day prior to experiments in glass-bottomed culture dishes (MatTek) at a density of 50,000 cells/14-mm dish. All samples were washed once in CO2-independent, serum- and phenol red-free medium (prepared as above but with exclusion of serum and addition of 30 mM HEPES and B12 supplement [Gibco]). All experiments with cells were performed in at least duplicates and repeated at least three times. The Aβ concentration was 500 nM in all experiments.
All uptake and colocalization experiments were carried out with the HF488-labeled Aβ peptides using a Leica SP5 confocal microscope (Leica Microsystems). For colocalization with FM 4–64 (Life Technologies), 5 μg/ml of the dye was added together with the peptide, and images were recorded after 1 hr of incubation. Both dyes were excited by the 488-nm laser line. HF488 emission was collected from 520–580 nm and FM 4–64 emission between 700–800 nm. For colocalization with LysoTracker red (Life Technologies), cells were incubated with HF488-labeled peptide for 24 hr, washed once with serum-free medium, and thereafter incubated for 1 hr with 100 nM LysoTracker red before images were recorded. LysoTracker red was excited using the […] laser line, and emission was collected between 700–800 nm. Sequential acquisition was used in all experiment to avoid bleed-through and cross-excitation. Cellular uptake at 4°C was assessed by keeping the cells in a cold room during incubation. The cells were washed prior to imaging to avoid uptake while observing the cells on the microscope.

[2] = Fluorescence lifetime imaging (FLIM) of amyloid fibril formation in vitro; assay type: physicochemical; details: for fluorescence lifetime of larger aggregates deposited on the coverslip: FLIM, 'often in the range of'; for mean fluorescence lifetime, monomeric peptide: beginning of time course / before trypsin
Protocol: We first examined whether a Hilyte Fluor 488 (HF488) dye attached to the N termini of Aβ(1–40) and Aβ(1–42) could act as a reporter of amyloid formation by monitoring how the fluorescence intensity of the dye changes as fibril formation occurs in vitro for each of the two Aβ isoforms. The appearance of fibrillar species was identified by means of dot blot experiments using the conformation-specific antibody LOC ([Kayed et al., 2007]), and the HF488 fluorescence intensity was measured in parallel (Figure 1A; Figure S1 available online). […] This small difference, however, could result from the fact that LOC recognizes fibrillar oligomers as well as amyloid fibrils, whereas the fluorescence quenching is likely to be associated predominately with amyloid fibrils. We also confirmed the formation of β sheet structure by measurement of circular dichroism spectra at the beginning and end of the time course of the experiment (Figure 1B). Next, we used FLIM to analyze these samples collected at the beginning and end of the time course of the experiment. The fluorescence lifetimes in each pixel of these images were obtained by fitting monoexponential decay functions to the observed time-resolved fluorescence decays, and the data and images are shown in Figures 1C and 1D.
All in vitro experiments were performed at a peptide concentration of 5 μM in 50 mM sodium phosphate buffer at pH 7.4. Aggregation kinetics were monitored by steady-state fluorescence in a FLUOstar Optima microplate reader (BMG Labtech) and sealed black Costar half-area, 96-well plates (Corning Life Sciences). Data were recorded at 5-min intervals using a 480-nm bandpass filter for excitation and a 520-nm bandpass filter for emission. Orbital shaking (300 rpm, 10 s) was carried out prior to each recording to ensure that each sample was homogenous. Sample aliquots for dot blot analysis were taken at the indicated time points and immediately flash-frozen in liquid nitrogen. These aliquots were thawed by dilution into phosphate buffer to a total volume of 25 μl and immediately blotted onto a nitrocellulose membrane using a Bio-Rad dot blot apparatus. The membrane was blocked with 5% (w/v) dry milk and 0.1% Triton X-100 in PBS and stained with LOC as the primary antibody and an Alexa Fluor 647-labeled anti-rabbit antibody as the secondary antibody (Life Technologies). The blots were imaged on a Typhoon 9400 scanner (GE Healthcare) using the 633-nm laser line for excitation. Densitometric analysis of the blots was carried out using ImageJ. ([Schneider et al., 2012]). Aβ samples for in vitro fluorescence lifetime imaging were placed in a glass-bottomed tissue culture dish (MatTek) and sealed with a coverslip and nail varnish to avoid evaporation.
All FLIM experiments were carried out using HF488-labeled Aβ peptides, and images were recorded by time-correlated single photon counting (TCSPC) using a confocal microscopy platform built on an Olympus Fluoview FV300 confocal scan unit. A pulsed supercontinuum source (SC 450, Fianium) was used for excitation, emitting a train of sub-10-picosecond pulses at 40 MHz repetition rate. The output beam was collimated and passed through a hot mirror assembly to remove infrared components at wavelengths greater than 700 nm. The visible portion of the spectrum was passed through an acousto-optic tunable filter (AOTFnC-VIS, AA Opto-Electronic) whose radio frequency modulator was driven by software developed using LabVIEW (National Instruments). The excitation wavelength was set to 480 nm. The excitation beam was reflected onto the sample with a 20/80 broad bandwidth coated beam splitter so that 20% of the excitation light passed on to the sample and 80% of the fluorescence signal was reflected toward the confocal pinhole. The fluorescence light was passed through a 515-nm Semrock long-pass filter (Laser 2000) and passed onto a fast photomultiplier tube (PMC-100, Becker & Hickl). Lifetimes were recorded using TCSPC circuitry (SPC-830, Becker & Hickl). […]

[3] = 5 μM peptide in 50 mM sodium phosphate buffer pH 7.4
[4] = 5 μM peptide in 50 mM sodium phosphate buffer pH 7.4, FLIM (TCSPC), monoexponential fit, mean ± SD

Substance	intracellular HF488 fluorescence (uptake) after 30 min [1]	intracellular localization after 24 hr [1]	uptake at 4°C ([1]; 500 nM peptide)	fluorescence lifetime of larger aggregates deposited on the coverslip [2, 3]	mean fluorescence lifetime, monomeric peptide [2, 4]	mean fluorescence lifetime, solutions containing fibrillar peptide ([2]; aggregation read-out, 5 μM peptide in 50 mM sodium phosphate buffer pH 7.4, end of time course, FLIM (TCSPC), monoexponential fit, mean ± SD)	cellular uptake after 10 minutes ([1]; 500 nM peptide, 10 minutes, confocal fluorescence with Z-scanning (Figure S3))	lag phase of fibril formation in vitro (decrease in fluorescence lifetime) ([2]; 5 μM peptide in 50 mM sodium phosphate buffer pH 7.4, droplet on FLIM microscope stage, sigmoidal decrease (Figure S2A))
^HF488Aβ(1–42): Synthetic 42-residue amyloid β peptide labeled at the N terminus with Hilyte Fluor 488, purchased from Anaspec	observed readily	colocalize with LysoTracker red	did not internalize any detectible quantities	2.5–3.0 ns	3.7 ± 0.05 ns	3.3 ± 0.1 ns		
^HF488Aβ(1–40): Synthetic 40-residue amyloid β peptide labeled at the N terminus with Hilyte Fluor 488, purchased from Anaspec	observed readily	colocalize with LysoTracker red	did not internalize any detectible quantities	2.5–3.0 ns	3.7 ± 0.1 ns		vesicular uptake	approximately 2.5 hr
